The subject of one assay is A-427. Kind of assay: relative viability (nuclei count vs DMSO), 5 days (fraction); higher = more cells survive. As to conditions: first compound 0.6325 µM. In short, it runs like this:
(§1)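 Values are medians from duplicate plates. Each reflects relative viability, defined as the nuclei count of treated wells over that of vehicle wells. Lung cancer cell lines in 1536-well plates were pin-tool dosed one day after seeding with one drug alone or with a fixed anchor-drug dose plus five library-drug doses (not always all listed) in √10 steps, then fixed, stained and imaged at 4× after 5 days.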
With `COCC1(CO)C(=O)C2CCN1CC2` (stereo not given) [PRIMA-1MET] + CC(=O)c1c(C)c2cnc(Nc3ccc(N4CCNCC4)cn3)nc2n(C2CCCC2)c1=O [Palbociclib] (partner 0.5 µM), the relative viability stood at 0.523.
The same measure, in the same setting: under `COCC1(CO)C(=O)C2CCN1CC2` (stereo not given) [PRIMA-1MET] + Cc1nc(Nc2ncc(C(=O)Nc3c(C)cccc3Cl)s2)cc(N2CCN(CCO)CC2)n1 [Dasatinib] (partner 0.075 µM) stands 0.577.

The assay is the same for the next values; noted with them: first compound 2 µM.
`COCC1(CO)C(=O)C2CCN1CC2` (stereo not given) [PRIMA-1MET] + CS(=O)(=O)N1CCN(Cc2cc3nc(-c4cccc5[nH]ncc45)nc(N4CCOCC4)c3s2)CC1 [Pictilisib] (partner 1 µM) registered a relative viability of 0.528.
The same measure, in the same setting: the result for `COCC1(CO)C(=O)C2CCN1CC2` (stereo not given) [PRIMA-1MET] + CCNC(=O)c1noc(-c2cc(C(C)C)c(O)cc2O)c1-c1ccc(CN2CCOCC2)cc1 [Luminespib] (partner 0.01 µM) reads 0.714.
As for `COCC1(CO)C(=O)C2CCN1CC2` (stereo not given) [PRIMA-1MET] + CC(=O)c1c(C)c2cnc(Nc3ccc(N4CCNCC4)cn3)nc2n(C2CCCC2)c1=O [Palbociclib] (partner 0.5 µM), the relative viability is 0.576.
Still for that read-out and setting: under `COCC1(CO)C(=O)C2CCN1CC2` (stereo not given) [PRIMA-1MET] + Cc1nc(Nc2ncc(C(=O)Nc3c(C)cccc3Cl)s2)cc(N2CCN(CCO)CC2)n1 [Dasatinib] (partner 0.075 µM) stands 0.721.

Staying with this assay, now noted: first compound 6.325 µM.
In the case of `COCC1(CO)C(=O)C2CCN1CC2` (stereo not given) [PRIMA-1MET] + CS(=O)(=O)N1CCN(Cc2cc3nc(-c4cccc5[nH]ncc45)nc(N4CCOCC4)c3s2)CC1 [Pictilisib] (partner 1 µM), the relative viability came to 0.378.
With `COCC1(CO)C(=O)C2CCN1CC2` (stereo not given) [PRIMA-1MET] + CCNC(=O)c1noc(-c2cc(C(C)C)c(O)cc2O)c1-c1ccc(CN2CCOCC2)cc1 [Luminespib] (partner 0.01 µM), the relative viability came out at 0.763.
`COCC1(CO)C(=O)C2CCN1CC2` (stereo not given) [PRIMA-1MET] + CC(=O)c1c(C)c2cnc(Nc3ccc(N4CCNCC4)cn3)nc2n(C2CCCC2)c1=O [Palbociclib] (partner 0.5 µM) yielded a relative viability of 0.49.
`COCC1(CO)C(=O)C2CCN1CC2` (stereo not given) [PRIMA-1MET] + Cc1nc(Nc2ncc(C(=O)Nc3c(C)cccc3Cl)s2)cc(N2CCN(CCO)CC2)n1 [Dasatinib] (partner 0.075 µM) gave a relative viability of 0.602.

Still in this assay, the particulars now being: first compound 20 µM.
`COCC1(CO)C(=O)C2CCN1CC2` (stereo not given) [PRIMA-1MET] + CS(=O)(=O)N1CCN(Cc2cc3nc(-c4cccc5[nH]ncc45)nc(N4CCOCC4)c3s2)CC1 [Pictilisib] (partner 1 µM): the relative viability is 0.622.
Same read-out and setting: under `COCC1(CO)C(=O)C2CCN1CC2` (stereo not given) [PRIMA-1MET] + CCNC(=O)c1noc(-c2cc(C(C)C)c(O)cc2O)c1-c1ccc(CN2CCOCC2)cc1 [Luminespib] (partner 0.01 µM) stands 0.58; under `COCC1(CO)C(=O)C2CCN1CC2` (stereo not given) [PRIMA-1MET] + CC(=O)c1c(C)c2cnc(Nc3ccc(N4CCNCC4)cn3)nc2n(C2CCCC2)c1=O [Palbociclib] (partner 0.5 µM), 0.525.
Take `COCC1(CO)C(=O)C2CCN1CC2` (stereo not given) [PRIMA-1MET] + Cc1nc(Nc2ncc(C(=O)Nc3c(C)cccc3Cl)s2)cc(N2CCN(CCO)CC2)n1 [Dasatinib] (partner 0.075 µM): the relative viability turned out to be 0.15.

The next assay concerns NCI-H3122. The assay is described as above. As to conditions: first compound 0.2 µM. Put shortly: as §1
The compound `COCC1(CO)C(=O)C2CCN1CC2` (stereo not given) [PRIMA-1MET] + CS(=O)(=O)N1CCN(Cc2cc3nc(-c4cccc5[nH]ncc45)nc(N4CCOCC4)c3s2)CC1 [Pictilisib] (partner 1 µM) registered a relative viability of 0.288.
On the same count and under the same terms, the result for `COCC1(CO)C(=O)C2CCN1CC2` (stereo not given) [PRIMA-1MET] + CCNC(=O)c1noc(-c2cc(C(C)C)c(O)cc2O)c1-c1ccc(CN2CCOCC2)cc1 [Luminespib] (partner 0.01 µM) reads 0.0725; that for `COCC1(CO)C(=O)C2CCN1CC2` (stereo not given) [PRIMA-1MET] + CC(=O)c1c(C)c2cnc(Nc3ccc(N4CCNCC4)cn3)nc2n(C2CCCC2)c1=O [Palbociclib] (partner 0.5 µM), 0.21.
In the case of `COCC1(CO)C(=O)C2CCN1CC2` (stereo not given) [PRIMA-1MET] + Cc1nc(Nc2ncc(C(=O)Nc3c(C)cccc3Cl)s2)cc(N2CCN(CCO)CC2)n1 [Dasatinib] (partner 0.075 µM), the relative viability was 0.382.

Staying with this assay, now noted: first compound 0.6325 µM.
On to `COCC1(CO)C(=O)C2CCN1CC2` (stereo not given) [PRIMA-1MET] + CS(=O)(=O)N1CCN(Cc2cc3nc(-c4cccc5[nH]ncc45)nc(N4CCOCC4)c3s2)CC1 [Pictilisib] (partner 1 µM), for which the relative viability amounted to 0.647.
In turn, `COCC1(CO)C(=O)C2CCN1CC2` (stereo not given) [PRIMA-1MET] + CCNC(=O)c1noc(-c2cc(C(C)C)c(O)cc2O)c1-c1ccc(CN2CCOCC2)cc1 [Luminespib] (partner 0.01 µM) had a relative viability of 0.0963.
Still for that read-out and setting: the result for `COCC1(CO)C(=O)C2CCN1CC2` (stereo not given) [PRIMA-1MET] + CC(=O)c1c(C)c2cnc(Nc3ccc(N4CCNCC4)cn3)nc2n(C2CCCC2)c1=O [Palbociclib] (partner 0.5 µM) reads 0.167; that for `COCC1(CO)C(=O)C2CCN1CC2` (stereo not given) [PRIMA-1MET] + Cc1nc(Nc2ncc(C(=O)Nc3c(C)cccc3Cl)s2)cc(N2CCN(CCO)CC2)n1 [Dasatinib] (partner 0.075 µM), 0.806.

Staying with this assay, now noted: first compound 2 µM.
`COCC1(CO)C(=O)C2CCN1CC2` (stereo not given) [PRIMA-1MET] + CS(=O)(=O)N1CCN(Cc2cc3nc(-c4cccc5[nH]ncc45)nc(N4CCOCC4)c3s2)CC1 [Pictilisib] (partner 1 µM) gave a relative viability of 0.659.
The same measure, in the same setting: under `COCC1(CO)C(=O)C2CCN1CC2` (stereo not given) [PRIMA-1MET] + CCNC(=O)c1noc(-c2cc(C(C)C)c(O)cc2O)c1-c1ccc(CN2CCOCC2)cc1 [Luminespib] (partner 0.01 µM) stands 0.0983.
Same read-out and setting: under `COCC1(CO)C(=O)C2CCN1CC2` (stereo not given) [PRIMA-1MET] + CC(=O)c1c(C)c2cnc(Nc3ccc(N4CCNCC4)cn3)nc2n(C2CCCC2)c1=O [Palbociclib] (partner 0.5 µM) stands 0.184.

(Values after the supplement of paper PMC10307832.)
